Laboratory results as given in ChEMBL document CHEMBL1201862, “PubChem BioAssay data set” (2004).
Active and inactive are the calls of the source.

Tests used:
[1] = test system: HEK293; test: HEK cell cytotoxicity by LDH release, dose response, cytotoxicity control for IDE activator project, fluorescence, HEK cells (AID 588440); assay type: functional, cell-based; details: Homo sapiens;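 also: cytotoxicity by LDH release measuring loss of membrane integrity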
[2] = molecular target: T1, Insulin-degrading enzyme (Homo sapiens, UniProt P14735); test: activators of endogenous IDE in HEK cells, dose response, cell-based, fluorescence polarization (AID 588439); assay type: functional
T1 sequence (P14735 whole entry): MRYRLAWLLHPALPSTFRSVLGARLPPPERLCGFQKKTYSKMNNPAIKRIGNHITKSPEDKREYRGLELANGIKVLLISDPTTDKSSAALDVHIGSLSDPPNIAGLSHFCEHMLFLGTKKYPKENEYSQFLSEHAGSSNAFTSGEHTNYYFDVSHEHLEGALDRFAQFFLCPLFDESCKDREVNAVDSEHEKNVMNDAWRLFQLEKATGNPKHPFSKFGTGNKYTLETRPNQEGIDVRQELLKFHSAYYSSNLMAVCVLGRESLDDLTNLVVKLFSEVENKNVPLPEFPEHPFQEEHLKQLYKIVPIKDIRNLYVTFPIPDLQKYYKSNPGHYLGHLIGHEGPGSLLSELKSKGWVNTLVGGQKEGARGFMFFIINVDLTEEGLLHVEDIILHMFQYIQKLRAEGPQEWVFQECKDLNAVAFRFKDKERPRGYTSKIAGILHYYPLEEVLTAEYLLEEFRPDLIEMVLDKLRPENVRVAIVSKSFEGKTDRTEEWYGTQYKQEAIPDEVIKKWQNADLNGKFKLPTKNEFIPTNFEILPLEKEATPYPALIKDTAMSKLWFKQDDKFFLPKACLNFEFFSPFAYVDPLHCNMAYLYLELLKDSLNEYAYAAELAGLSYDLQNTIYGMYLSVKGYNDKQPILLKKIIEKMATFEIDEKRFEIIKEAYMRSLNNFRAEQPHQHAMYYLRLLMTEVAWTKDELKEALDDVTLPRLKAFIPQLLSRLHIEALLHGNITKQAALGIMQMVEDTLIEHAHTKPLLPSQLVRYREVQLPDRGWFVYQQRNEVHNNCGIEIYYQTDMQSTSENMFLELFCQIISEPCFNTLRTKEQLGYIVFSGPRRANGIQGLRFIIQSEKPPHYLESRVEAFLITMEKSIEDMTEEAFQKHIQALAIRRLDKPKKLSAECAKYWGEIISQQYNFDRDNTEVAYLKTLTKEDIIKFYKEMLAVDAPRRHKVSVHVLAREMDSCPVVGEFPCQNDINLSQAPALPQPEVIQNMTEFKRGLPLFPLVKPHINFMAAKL

[3] = molecular target: Intestinal-type alkaline phosphatase (Mus musculus, UniProt P24822); test: PubChem AID 488874; assay type: functional
Chain of Intestinal-type alkaline phosphatase (Mus musculus, UniProt P24822) (P24822 whole entry): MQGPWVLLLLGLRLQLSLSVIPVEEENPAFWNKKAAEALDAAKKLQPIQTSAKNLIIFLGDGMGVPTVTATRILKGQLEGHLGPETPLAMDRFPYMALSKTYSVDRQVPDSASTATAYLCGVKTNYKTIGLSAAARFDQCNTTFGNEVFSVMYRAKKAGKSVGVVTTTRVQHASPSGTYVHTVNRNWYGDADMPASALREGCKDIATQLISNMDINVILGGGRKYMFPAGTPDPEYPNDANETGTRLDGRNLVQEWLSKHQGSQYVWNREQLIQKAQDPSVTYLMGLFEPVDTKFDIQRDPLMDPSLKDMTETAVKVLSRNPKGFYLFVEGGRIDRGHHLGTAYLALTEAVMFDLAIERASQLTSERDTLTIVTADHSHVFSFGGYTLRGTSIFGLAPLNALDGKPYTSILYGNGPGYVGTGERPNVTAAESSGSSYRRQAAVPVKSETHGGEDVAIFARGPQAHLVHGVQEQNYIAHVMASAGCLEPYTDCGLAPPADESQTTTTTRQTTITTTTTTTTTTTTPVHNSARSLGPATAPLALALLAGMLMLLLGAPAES

[4] = molecular target: ORF 73 (Human herpesvirus 8, UniProt O40947); test: inhibitors of C-LANA binding to LBS DNA, dose response, biochemical, fluorescence polarization, cherry-picked samples (AID 504725); design: species or system Human gammaherpesvirus 8;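 also: fluorescence polarization of a labeled DNA duplex reporting LANA DNA binding; potency is for inhibitors that block LANA binding to the DNA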
Chain of ORF 73 (O40947 whole entry): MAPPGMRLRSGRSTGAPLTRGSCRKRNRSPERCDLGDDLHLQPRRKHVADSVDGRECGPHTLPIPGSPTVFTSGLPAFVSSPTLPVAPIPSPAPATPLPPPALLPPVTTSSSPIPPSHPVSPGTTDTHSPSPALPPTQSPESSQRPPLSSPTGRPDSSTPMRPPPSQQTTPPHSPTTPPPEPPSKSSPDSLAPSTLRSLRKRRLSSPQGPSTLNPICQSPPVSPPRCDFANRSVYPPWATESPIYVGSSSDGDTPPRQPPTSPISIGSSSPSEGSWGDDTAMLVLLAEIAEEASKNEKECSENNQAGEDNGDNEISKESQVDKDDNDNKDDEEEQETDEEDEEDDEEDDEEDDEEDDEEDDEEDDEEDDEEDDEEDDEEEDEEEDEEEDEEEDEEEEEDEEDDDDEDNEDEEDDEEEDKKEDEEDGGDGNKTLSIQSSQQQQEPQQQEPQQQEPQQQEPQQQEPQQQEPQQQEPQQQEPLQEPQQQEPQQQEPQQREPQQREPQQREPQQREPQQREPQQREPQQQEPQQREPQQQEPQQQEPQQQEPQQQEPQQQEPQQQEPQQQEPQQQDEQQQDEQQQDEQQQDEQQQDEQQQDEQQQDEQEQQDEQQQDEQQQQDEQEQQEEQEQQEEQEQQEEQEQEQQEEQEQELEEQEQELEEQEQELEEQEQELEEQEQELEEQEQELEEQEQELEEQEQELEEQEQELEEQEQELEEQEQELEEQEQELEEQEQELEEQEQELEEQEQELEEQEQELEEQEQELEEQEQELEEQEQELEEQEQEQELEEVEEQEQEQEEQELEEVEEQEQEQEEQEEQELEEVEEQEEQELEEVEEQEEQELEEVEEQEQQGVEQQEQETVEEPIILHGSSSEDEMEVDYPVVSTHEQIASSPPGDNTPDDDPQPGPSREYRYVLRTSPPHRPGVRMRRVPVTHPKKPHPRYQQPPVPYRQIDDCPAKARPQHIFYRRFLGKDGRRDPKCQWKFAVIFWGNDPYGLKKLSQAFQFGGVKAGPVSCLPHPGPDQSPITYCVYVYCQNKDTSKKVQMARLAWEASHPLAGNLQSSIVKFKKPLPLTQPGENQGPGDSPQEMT

[5] = molecular target: T2, Intestinal-type alkaline phosphatase (Homo sapiens, UniProt P09923); test: human IAP inhibitors, dose response, biochemical, luminescent, uHTS hits, set 2 (AID 488793); assay type: functional
T2 sequence (P09923 whole entry): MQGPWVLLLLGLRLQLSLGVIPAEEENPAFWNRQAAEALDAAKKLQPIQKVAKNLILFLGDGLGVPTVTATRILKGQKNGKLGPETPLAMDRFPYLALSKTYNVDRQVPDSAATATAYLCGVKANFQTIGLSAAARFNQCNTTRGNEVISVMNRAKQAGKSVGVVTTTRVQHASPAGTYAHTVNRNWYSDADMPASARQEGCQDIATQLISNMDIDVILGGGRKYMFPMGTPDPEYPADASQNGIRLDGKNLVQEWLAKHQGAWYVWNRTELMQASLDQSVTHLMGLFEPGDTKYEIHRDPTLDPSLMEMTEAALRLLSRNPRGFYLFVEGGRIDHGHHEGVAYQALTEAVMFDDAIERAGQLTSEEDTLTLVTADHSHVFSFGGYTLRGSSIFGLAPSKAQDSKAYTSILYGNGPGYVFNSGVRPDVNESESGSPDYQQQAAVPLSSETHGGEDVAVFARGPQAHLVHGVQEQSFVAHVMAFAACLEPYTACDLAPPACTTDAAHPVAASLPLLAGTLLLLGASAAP

[6] = molecular target: T3, Alkaline phosphatase, tissue-nonspecific isozyme (Homo sapiens, UniProt P05186); test: inhibition of tissue-nonspecific alkaline phosphatase – biochemical, dose response (AID 488882); assay type: functional
T3 sequence (P05186 whole entry): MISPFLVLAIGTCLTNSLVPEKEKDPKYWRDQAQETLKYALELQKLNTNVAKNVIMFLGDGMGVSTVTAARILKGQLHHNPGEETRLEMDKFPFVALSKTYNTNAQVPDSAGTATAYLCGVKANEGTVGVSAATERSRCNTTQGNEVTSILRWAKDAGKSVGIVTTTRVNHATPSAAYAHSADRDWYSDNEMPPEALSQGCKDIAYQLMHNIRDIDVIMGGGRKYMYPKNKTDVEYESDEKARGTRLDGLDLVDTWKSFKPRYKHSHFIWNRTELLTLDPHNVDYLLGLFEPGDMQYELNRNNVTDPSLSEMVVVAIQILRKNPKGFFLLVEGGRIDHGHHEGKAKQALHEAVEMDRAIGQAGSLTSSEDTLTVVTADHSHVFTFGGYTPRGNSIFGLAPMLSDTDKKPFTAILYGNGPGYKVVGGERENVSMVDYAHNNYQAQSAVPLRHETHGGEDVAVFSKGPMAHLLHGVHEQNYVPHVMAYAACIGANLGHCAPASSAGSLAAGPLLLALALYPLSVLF

[7] = test system: HEK293; test: optical interference in Abeta FP readout, dose response, artefact control for IDE activator project, biochemical, fluorescence polarization (AID 588442); assay type: functional, cell-based; details: Homo sapiens
[8] = molecular target: Beta-lactamase (Pseudomonas aeruginosa, UniProt Q79MP6);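 also: biochemical dose-response test of metallo-beta-lactamase enzyme inhibition, read out by epi-absorbance; purified recombinant IMP-1 metallo-beta-lactamase with nitrocefin as substrate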
Chain of Beta-lactamase (Pseudomonas aeruginosa, UniProt Q79MP6) (Q79MP6 whole entry): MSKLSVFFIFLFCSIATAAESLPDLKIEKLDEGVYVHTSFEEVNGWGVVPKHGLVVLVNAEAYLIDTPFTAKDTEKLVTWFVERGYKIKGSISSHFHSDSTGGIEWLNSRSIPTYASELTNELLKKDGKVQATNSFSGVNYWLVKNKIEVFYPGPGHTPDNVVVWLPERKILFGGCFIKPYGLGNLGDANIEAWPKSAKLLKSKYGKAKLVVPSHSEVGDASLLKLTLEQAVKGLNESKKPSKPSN

[9] = molecular target: T1, Insulin-degrading enzyme; test: activators of recombinant IDE enzyme, dose response, counter-screen for IDE activator project, biochemical, fluorescence polarization (AID 588681)
[10] = molecular target: T2, Intestinal-type alkaline phosphatase; test: Dose Response confirmation of uHTS hits from a small molecule inhibitors of human intestinal alkaline phosphatase via a luminescent assay. [Related pubchem assays (depositor defined):AID2544, AID2574]; assay type: functional
[11] = molecular target: Beta-lactamase (Salmonella choleraesuis (strain SC-B67), UniProt Q5J463)
Chain of Beta-lactamase (Salmonella choleraesuis (strain SC-B67), UniProt Q5J463) (Q5J463 whole entry): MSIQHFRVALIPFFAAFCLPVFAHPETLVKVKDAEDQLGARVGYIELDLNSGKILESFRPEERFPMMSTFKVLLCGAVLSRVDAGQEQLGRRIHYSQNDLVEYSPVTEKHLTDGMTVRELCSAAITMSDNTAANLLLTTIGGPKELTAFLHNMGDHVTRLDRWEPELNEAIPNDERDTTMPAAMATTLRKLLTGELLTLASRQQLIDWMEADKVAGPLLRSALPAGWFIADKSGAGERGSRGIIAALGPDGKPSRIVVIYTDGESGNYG

[12] = (§1) Counterscreen for antagonists of the orexin 1 receptor (OX1R; HCRTR1): Fluorescence-based cell-based high throughput dose response assay to identify antagonists of the parental CHO cell line. [Related pubchem assays (depositor defined):AID434989, AID435008, AID463079, AID485270, AID492963, AID492964, AID492965, AID493232, AID504699, AID504701]; assay type: functional
[13] = molecular target: T4, Orexin/Hypocretin receptor type 1 (Homo sapiens, UniProt O43613); test: (§2) Fluorescence-based cell-based high throughput dose response assay for antagonists of the orexin 1 receptor (OX1R; HCRTR1). [Related pubchem assays (depositor defined):AID434989, AID435008, AID463079, AID485270, AID492963, AID492964, AID492965, AID493232, AID504717, AID504718]; assay type: functional
T4 sequence (O43613 whole entry): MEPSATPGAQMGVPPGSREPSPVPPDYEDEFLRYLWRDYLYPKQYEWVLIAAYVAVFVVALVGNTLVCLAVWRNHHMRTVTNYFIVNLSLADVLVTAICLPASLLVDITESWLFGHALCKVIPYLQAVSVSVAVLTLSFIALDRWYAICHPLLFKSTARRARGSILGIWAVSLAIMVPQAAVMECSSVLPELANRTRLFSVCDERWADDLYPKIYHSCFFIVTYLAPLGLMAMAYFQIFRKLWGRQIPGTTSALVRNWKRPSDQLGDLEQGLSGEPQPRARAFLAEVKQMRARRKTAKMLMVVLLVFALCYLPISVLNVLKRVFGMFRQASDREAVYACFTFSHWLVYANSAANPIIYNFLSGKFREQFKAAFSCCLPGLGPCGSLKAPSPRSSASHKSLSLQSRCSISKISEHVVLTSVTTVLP

[14] = molecular target: T5, Zinc finger protein mex-5 (Caenorhabditis elegans, UniProt Q9XUB2); test: MEX-5/TCR-2 RNA interaction inhibitors, dose response, biochemical, C. elegans, fluorescence polarization (AID 1960)
T5 sequence (Q9XUB2 whole entry): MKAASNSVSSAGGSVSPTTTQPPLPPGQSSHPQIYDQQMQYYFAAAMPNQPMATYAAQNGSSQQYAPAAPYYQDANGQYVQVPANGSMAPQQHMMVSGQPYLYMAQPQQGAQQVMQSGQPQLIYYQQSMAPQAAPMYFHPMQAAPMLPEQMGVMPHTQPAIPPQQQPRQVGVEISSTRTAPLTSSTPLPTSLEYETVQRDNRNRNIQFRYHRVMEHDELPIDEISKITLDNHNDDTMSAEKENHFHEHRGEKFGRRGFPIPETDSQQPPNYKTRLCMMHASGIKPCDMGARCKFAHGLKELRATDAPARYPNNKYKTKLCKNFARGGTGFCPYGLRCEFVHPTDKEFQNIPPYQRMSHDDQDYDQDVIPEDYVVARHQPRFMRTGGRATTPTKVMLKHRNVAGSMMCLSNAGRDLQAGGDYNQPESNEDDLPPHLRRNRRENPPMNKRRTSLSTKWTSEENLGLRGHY

[15] = test system: CHO-K1; test: as §1, with “Homogeneous time resolved fluorescence (HTRF)-based” for “Fluorescence-based”, “cell-based” for “cell-based high throughput”, “CHO-K1” for “CHO”; assay type: functional; details: Cricetulus griseus;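 also: potency for inhibition of ATP-stimulated IP1 production as antagonists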
[16] = molecular target: T6, RNA-binding protein pos-1 (Caenorhabditis elegans, UniProt G5EF15); test: inhibitors of POS-1/mex-3 RNA binding, dose response, biochemical, fluorescence polarization (AID 1964);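 also: purified POS-1 fused to maltose binding protein made in E. coli; potency of compounds blocking POS-1 binding to fluorescent RNA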
T6 sequence (G5EF15 whole entry): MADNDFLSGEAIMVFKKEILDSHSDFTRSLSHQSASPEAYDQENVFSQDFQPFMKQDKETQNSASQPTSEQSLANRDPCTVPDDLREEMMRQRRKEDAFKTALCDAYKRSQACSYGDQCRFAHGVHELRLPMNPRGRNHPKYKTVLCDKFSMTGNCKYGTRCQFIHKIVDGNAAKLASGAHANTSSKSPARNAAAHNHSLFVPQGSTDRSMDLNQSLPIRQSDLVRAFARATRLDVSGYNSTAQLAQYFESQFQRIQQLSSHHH

[17] = molecular target: T4, Orexin/Hypocretin receptor type 1; test: as §2, with “Homogeneous Time Resolved Fluorescence (HTRF)-based” for “Fluorescence-based”; assay type: functional
[18] = molecular target: T7, Orexin receptor type 2 (Homo sapiens, UniProt O43614); test: Counterscreen assay for antagonists of the orexin 1 receptor (OX1R; HCRTR1): Homogeneous Time Resolved Fluorescence (HTRF)-based cell-based dose response assay for antagonists of the orexin 2 receptor (OX2R; HCRTR2), run by assay provider.; assay type: functional
T7 sequence (O43614 whole entry): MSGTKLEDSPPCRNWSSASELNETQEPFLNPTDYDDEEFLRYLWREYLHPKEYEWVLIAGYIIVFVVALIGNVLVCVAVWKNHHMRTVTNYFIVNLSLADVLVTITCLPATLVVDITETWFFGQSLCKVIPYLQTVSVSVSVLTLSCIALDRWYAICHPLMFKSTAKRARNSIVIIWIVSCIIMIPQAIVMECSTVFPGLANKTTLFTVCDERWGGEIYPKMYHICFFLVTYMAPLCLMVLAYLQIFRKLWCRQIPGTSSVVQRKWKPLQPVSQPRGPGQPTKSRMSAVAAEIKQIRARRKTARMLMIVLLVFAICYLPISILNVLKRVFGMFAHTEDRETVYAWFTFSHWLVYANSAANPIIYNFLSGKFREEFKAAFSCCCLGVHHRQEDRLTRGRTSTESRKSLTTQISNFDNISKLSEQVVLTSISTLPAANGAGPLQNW

[19] = molecular target: T7, Orexin receptor type 2; test: Counterscreen assay for antagonists of the orexin 1 receptor (OX1R; HCRTR1): Fluorescence-based cell-based dose response assay for antagonists of the orexin 2 receptor (OX2R; HCRTR2), run by assay provider.; assay type: functional

In the case of Nc1ccc(-c2c3ccc(=O)cc-3oc3cc(O)ccc23)cc1C(=O)O, the IC50 [1] is reported as > 89.2 µM (inactive), the EC50 [2] is reported as > 54.7 µM (inactive) and the IC50 [3] is reported as 20.3 µM (active). The AC50 [4] was 0.532 µM (active), the IC50 [5] was 28.1 µM (active) and the IC50 [6] was 34 µM (active). For the same molecule, the EC50 [7] was > 54.7 µM (inactive), the IC50 [8] was 8.62 µM (active) and the EC50 [9] was > 54.7 µM (inactive). For the same molecule, the IC50 [10] was 14.5 µM (inactive) and the IC50 [11] was 3.41 µM (active).

With Nc1c(C(=O)c2ccc(Br)s2)oc2ccccc12 the IC50 [12] was > 49.8 µM (inactive), the IC50 [13] was 15.7 µM (inactive) and the EC50 [14] was 106 µM (active). For the same molecule, the IC50 [15] was > 66.2 µM (inactive), the EC50 [16] was 71.8 µM (active) and the IC50 [17] was 6.69 µM (active). The IC50 [18] was > 50 µM (inactive) and the IC50 [19] was 30.7 µM (inactive).
